This is an account of results in patent publication US10669268B2, “Bicyclic derivatives” (Hoffmann-La Roche Inc., priority 2012, dated 2020).

The assay concerns the target ATX (human His-tagged) (Homo sapiens (Human), UniProt Q13822). Put plainly: Human ATX enzyme inhibition assay (fluorescence quenching, MR121 substrate). It is filed as biochemical. The following applies: 30 nM ATX, 1 μM MR121 substrate, 30° C., pH 8.0. As for the experimental part: Human ATX Enzyme Inhibition Assay
Assay working solutions were made as follows:
Assay buffer (50 mM Tris-HCl, 140 mM NaCl, 5 mM KCl, 1 mM CaCl2, 1 mM MgCl2, 0.01% Triton-X-100, pH 8.0;
MR121 substrate solution: MR121 substrate stock solution (800 μM MR121 substrate in DMSO), diluted to 2-5× final concentration in assay buffer.
10 μL of MR121 substrate solution was added (1 μM final concentration), mixed 30 times and then incubated for 15 minutes at 30° C.

A word on the IC50: it is the midpoint of a concentration-inhibition curve. `O=C(OCc1ccc(C(F)(F)F)cc1)N1C[C@@H]2CN(C(=O)c3ccc4[nH]nnc4c3)C[C@H]2C1` [Example 4.57, (3aS,6aS)-5-(1H-benzotriazole-5-carbonyl)-hexahydro-pyrrolo[3,4-c]pyrrole-2-carboxylic acid 4-trifluoromethyl-benzyl ester] showed an IC50 of 11 nM.

Consider `O=C(/C=C/c1ccncc1)N1CC[C@@H]2CN(C(=O)c3ccc4[nH]nnc4c3)C[C@@H]2CC1` [Example 15.28], for which it took 4420 nM to reach half-maximal inhibition (IC50).

Compound `COc1cc(C(=O)N2C[C@H]3CN(C(=O)c4ccc5[nH]nnc5c4)C[C@@H]3C2)cc2ccccc12` [Example 19.15, (1H-benzotriazol-5-yl)-[(3aR,6aR)-5-(4-methoxy-naphthalene-2-carbonyl)-hexahydro-pyrrolo[3,4-c]pyrrol-2-yl]-methanone] registered an IC50 of 20 nM. This IC50 lies about 220-fold lower than the previous one.

`O=C(/C=C/c1ccc(F)cc1F)N1CC[C@@H]2CN(C(=O)c3ccc4[nH]nnc4c3)C[C@@H]2CC1` [Example 15.29] returned an IC50 of 34 nM.

Compound `O=C(/C=C/c1ccc(OC(F)(F)F)cc1)N1CC[C@@H]2CN(C(=O)N3CCn4nc(C(F)(F)F)nc4C3)C[C@@H]2CC1` [Example 8.07] registered an IC50 of 1840 nM.

Compound `O=C(/C=C/c1ccc(C(F)(F)F)cc1)N1C[C@@H]2CN(C(=O)c3ccc4[nH]nnc4c3)C[C@H]2C1` [Example 15.58] had an IC50 of 5 nM. This IC50 is about 370-fold lower than that of the compound before.

`COc1cc(OC(F)(F)F)ccc1COC(=O)N1CC[C@@H]2CN(C(=O)c3ccc4[nH]nnc4c3)C[C@H]2C1` (relative stereo) [Example 1.33, trans-2-(1H-benzotriazole-5-carbonyl)-octahydro-pyrrolo[3,4-c]pyridine-5-carboxylic acid 2-methoxy-4-trifluoromethoxy-benzyl ester] gave an IC50 of 21 nM.

In the case of `O=C(/C=C/c1cc(Cl)cc(Cl)c1)N1C[C@@H]2CN(C(=O)c3ccc4[nH]nnc4c3)C[C@H]2C1` [Example 15.42], the IC50 came out at 6 nM.

Compound `O=C(OCc1ccc(F)c(OC(F)(F)F)c1)N1C[C@@H]2CN(C(=O)c3ccc4[nH]nnc4c3)C[C@@H]2C1` [Example 4.28, (3aS,6aR)-5-(1H-benzotriazole-5-carbonyl)-hexahydro-pyrrolo[3,4-c]pyrrole-2-carboxylic acid 4-fluoro-3-trifluoromethoxy-benzyl ester] gave an IC50 of 123 nM.

In the case of `COc1cc(CCC(=O)N2C[C@@H]3CN(C(=O)c4ccc5[nH]nnc5c4)C[C@H]3C2)cc(OC(F)(F)F)c1` [Example 17.20, 1-[(3aR,6aR)-5-(1H-benzotriazole-5-carbonyl)-1,3,3a,4,6,6a-hexahydropyrrolo[3,4-c]pyrrol-2-yl]-3-[3-methoxy-5-(trifluoromethoxy)phenyl]propan-1-one], the IC50 turned out to be 2 nM.

Compound `N#Cc1cc(Cl)cc(/C=C/C(=O)N2C[C@@H]3CN(C(=O)c4ccc5[nH]nnc5c4)C[C@H]3C2)c1` [Example 15.50] came in with an IC50 of 6 nM.

`N#Cc1ccc(/C=C/C(=O)N2C[C@@H]3CN(C(=O)c4ccc5[nH]nnc5c4)C[C@H]3C2)c(F)c1` [Example 15.35]: the IC50 worked out at 31 nM.

`O=C(c1ccc2[nH]nnc2c1)N1C[C@@H]2CN(C(=O)c3cc4cc(Cl)ccc4[nH]3)C[C@@H]2C1` [Example 15.01] showed a 50% inhibitory concentration (IC50) of 1620 nM. This IC50 is about 52-fold higher than that of the compound before.

`O=C(COc1ccccc1C1CCCO1)N1C[C@@H]2CN(C(=O)c3ccc4[nH]nnc4c3)C[C@H]2C1` (stereo partly drawn) [Example 19.14, 1-[(3aS,6aS)-5-(1H-benzotriazole-5-carbonyl)-hexahydro-pyrrolo[3,4-c]pyrrol-2-yl]-2-[2-(tetrahydro-furan-2-yl)-phenoxy]-ethanone] showed an IC50 of 273 nM. Compared with the last compound, the IC50 is about 5.9-fold lower.

`O=C(COc1ccc(C(F)(F)F)cc1Cl)N1CC[C@@H]2CN(C(=O)c3ccc4[nH]nnc4c3)C[C@@H]2CC1` [Example 1.38, 1-((3aR,8aS)-2-(1H-benzo[d][1,2,3]triazole-5-carbonyl)octahydropyrrolo[3,4-d]azepin-6(7H)-yl)-2-(2-chloro-4-(trifluoromethyl)phenoxy)ethanone] had an IC50 of 10 nM.

In the case of `COc1cc(C#N)ccc1OCC(=O)N1C[C@@H]2CN(C(=O)c3ccc4[nH]nnc4c3)C[C@H]2C1` [Example 15.93], the IC50 was determined as 921 nM.

Regarding `O=C(OCc1ccc(OC(F)(F)F)cc1)N1C[C@@H]2CN(C(=O)N3CCc4[nH]nnc4C3)C[C@H]2C1` [Example 4.54, (3aS,6aS)-5-(1,4,6,7-tetrahydro-[1,2,3]triazolo[4,5-c]pyridine-5-carbonyl)-hexahydro-pyrrolo[3,4-c]pyrrole-2-carboxylic acid 4-trifluoromethoxy-benzyl ester], half-maximal inhibition (IC50) was put at 14 nM. This IC50 is about 66-fold lower than that of the compound before.

Take `Cc1cc(OCC(=O)N2C[C@@H]3CN(C(=O)c4ccc5[nH]nnc5c4)C[C@H]3C2)c(C(C)C)cc1C#N` [Example 19.05, 4-{2-[(3aS,6aS)-5-(1H-benzotriazole-5-carbonyl)-hexahydro-pyrrolo[3,4-c]pyrrol-2-yl]-2-oxo-ethoxy}-5-isopropyl-2-methyl-benzonitrile]: the IC50 amounted to 5 nM.

The compound `CC(C)c1cc(Cl)ccc1OCC(=O)N1C[C@@H]2CN(C(=O)c3ccc4[nH]nnc4c3)C[C@H]2C1` [Example 19.10, 1-[(3aS,6aS)-5-(1H-benzotriazole-5-carbonyl)-hexahydro-pyrrolo[3,4-c]pyrrol-2-yl]-2-(4-chloro-2-isopropyl-phenoxy)-ethanone] displayed an IC50 of 6 nM.

For the compound `O=C(/C=C/c1cccc(Cl)c1)N1CC[C@@H]2CN(C(=O)c3ccc4[nH]nnc4c3)C[C@@H]2CC1` [Example 15.18], inhibition was half-maximal at 20 nM (IC50). This IC50 lies about 3.3-fold higher than the previous one.

With `O=C(/C=C/c1ccc([S+]([O-])C(F)(F)F)cc1)N1CC[C@@H]2CN(C(=O)c3ccc4[nH]nnc4c3)C[C@@H]2CC1` (stereo partly drawn) [Example 16, (E)-1-((3aR,8aS)-2-(1H-benzo[d][1,2,3]triazole-5-carbonyl)octahydropyrrolo[3,4-d]azepin-6(7H)-yl)-3-(4-(trifluoromethylsulfinyl)phenyl)prop-2-en-1-one], the IC50 amounted to 15 nM.

The compound `N#Cc1cc(OC(F)(F)F)ccc1OCC(=O)N1C[C@@H]2CN(C(=O)c3ccc4[nH]nnc4c3)C[C@H]2C1` [Example 15.96] yielded an IC50 of 74 nM.

Consider `O=C(OCc1ccc(OC(F)F)cc1)N1C[C@@H]2CN(C(=O)c3ccc4[nH]nnc4c3)C[C@H]2C1` [Example 4.41, (3aS,6aS)-5-(1H-benzotriazole-5-carbonyl)-hexahydro-pyrrolo[3,4-c]pyrrole-2-carboxylic acid 4-difluoromethoxy-benzyl ester], for which the IC50 was 9 nM. Compared with the last compound, the IC50 is about 8.2-fold lower.

The compound `CC(C)c1cc(C#N)ccc1COC(=O)N1C[C@@H]2CN(C(=O)c3ccc4[nH]nnc4c3)C[C@H]2C1` [Example 4.52, (3aS,6aS)-5-(1H-benzotriazole-5-carbonyl)-hexahydro-pyrrolo[3,4-c]pyrrole-2-carboxylic acid 4-cyano-2-isopropyl-benzyl ester] gave an IC50 of 10 nM.

In the case of `COc1cc(/C=C/C(=O)N2C[C@@H]3CN(C(=O)c4ccc5[nH]nnc5c4)C[C@H]3C2)cc(OC(F)(F)F)c1` [Example 15.51, (E)-1-[(3aR,6aR)-5-(1H-benzotriazole-5-carbonyl)-hexahydro-pyrrolo[3,4-c]pyrrol-2-yl]-3-(3-methoxy-5-trifluoromethoxy-phenyl)-prop-2-ene-1-one], the IC50 was determined as 6 nM.
